For one data set, the target named is T1, hGLP1R (Homo sapiens, UniProt P43220).
T1 construct: expressed in transfected cells; host or cells: HEK-293 CRE-luciferase reporter cells
The experiment in a line: hGLP1R CreLuc assay in 0.5% and 100% plasma (HEK-293 CRE-luciferase reporter cells). In kind it is cell-based. Particulars: HEK-293 reporter cells. On the technique in general: Reporter assays use an easily measured gene product as a stand-in for the process of interest.

A further data set has as its target T2, hGIPR (Homo sapiens, UniProt P48546).
T2 construct: expressed in transfected cells; host or cells: CHO CRE-luciferase reporter cells
T2 sequence (P48546 22-466): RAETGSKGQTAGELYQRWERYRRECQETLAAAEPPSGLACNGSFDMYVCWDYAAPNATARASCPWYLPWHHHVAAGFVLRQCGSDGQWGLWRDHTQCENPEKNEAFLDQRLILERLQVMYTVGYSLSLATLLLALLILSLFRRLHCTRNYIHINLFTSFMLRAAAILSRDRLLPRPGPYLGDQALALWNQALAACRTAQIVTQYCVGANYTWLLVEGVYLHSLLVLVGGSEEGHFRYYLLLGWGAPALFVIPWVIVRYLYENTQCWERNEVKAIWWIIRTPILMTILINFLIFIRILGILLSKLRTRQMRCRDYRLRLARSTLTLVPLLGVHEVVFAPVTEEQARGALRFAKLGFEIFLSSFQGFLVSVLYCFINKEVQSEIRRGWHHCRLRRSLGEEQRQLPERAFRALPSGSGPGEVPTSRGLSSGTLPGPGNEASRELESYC
The experiment in a line: hGIPR CreLuc assay in 0.5% and 100% plasma (CHO CRE-luciferase reporter cells). In kind it is cell-based.

A short description of data set [1]: Mouse PK after intravenous application. In kind it is in vivo. Particulars: plasma, male NMRI mice, intravenous 30-60 nmol/kg, non-compartmental analysis. The gist of the method: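 Male NMRI mice (30–40 g) dosed 30-60 nmol/kg by tail vein in 50 mM phosphate buffer pH 7.4/3.5% mannitol. Saphenous EDTA blood sampled from conscious animals up to 56 h; plasma peptide quantified by LC-MS. Parameters from non-compartmental analysis of individual profiles.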

Data set [2] in a line: Solubility in 0.1 M phosphate buffer at pH 7. In kind it is physicochemical. As to conditions: 0.1 M phosphate buffer at pH 7, 10 mg/mL final peptide concentration, shaking 2 hours at room temperature, peptides as TFA-salts; measured sample pH 6.5-7.0.
The subject of a further data set is Normal NMRI Mice. Description: Effect on acute food intake in normal NMRI mice. In kind it is in vivo. Particulars: male NMRI mice, single subcutaneous dose 100 nmol/kg, 24 hours food intake normalized to vehicle group. Here is the method: Male NMRI mice were obtained from Janvier (Janvier Labs, France) or from Charles River (Charles River Research Models & Services Germany GmbH) at the age of 3 weeks. The animals get a microchip (Datamars, Slim Microchip T-SL) for individual identification after delivery. They were housed with 4 mice per cage under a 12/12 dark-light cycle, light off at 3 p.m. Room temperature was controlled to 21° C.+/−1° C. and humidity 60%+/−20%. Mice had ad libitum access to regular rodent chow (KLIBA Nafag 3040 or Altromin 1324, Brogaarden, Denmark) and tap water.
Latest transfer into the HM2-System of MBRose, Denmark (real-time monitoring system of food- and water intake) of the animals 5 days before study start, to allow acclimatization to experimental conditions. As the animals were uniquely identified with the microchips, each individual animal was identified by its own microchip upon entry and exit from the food channel via antennae. Randomization of the mice for each study group (n=8; age earliest 6 weeks old) was based on food intake (middle of last three days 24 h-interval) and bodyweight directly before start of the study. A vehicle treated (50 mM phosphate buffer pH 7.4 with 3.5% mannitol) group was included in each experiment. To have the same nutrition standard for each animal the food access was locked eight hours before dark phase. One hour before night, the animals were once treated subcutaneously with the test peptide. Food intake was reported hourly for a period of 24 hours.

Setting [3] is: 0.5% human plasma, read-out: hGLP1R 0.5% hP.
[4] abbreviates: 100% human plasma, read-out: hGLP1R 100% hP.
[5] abbreviates: 0.5% human plasma, read-out: hGIPR 0.5% hP.

Each structure is given as a SMILES string. Like-named read-outs stand apart in the source and are kept apart here.

The term MRT denotes a mean duration of stay, worked out from the concentration-time curve. In general, solubility refers to the concentration that dissolves in the medium under given conditions.

T1 sequence (P43220 24-463): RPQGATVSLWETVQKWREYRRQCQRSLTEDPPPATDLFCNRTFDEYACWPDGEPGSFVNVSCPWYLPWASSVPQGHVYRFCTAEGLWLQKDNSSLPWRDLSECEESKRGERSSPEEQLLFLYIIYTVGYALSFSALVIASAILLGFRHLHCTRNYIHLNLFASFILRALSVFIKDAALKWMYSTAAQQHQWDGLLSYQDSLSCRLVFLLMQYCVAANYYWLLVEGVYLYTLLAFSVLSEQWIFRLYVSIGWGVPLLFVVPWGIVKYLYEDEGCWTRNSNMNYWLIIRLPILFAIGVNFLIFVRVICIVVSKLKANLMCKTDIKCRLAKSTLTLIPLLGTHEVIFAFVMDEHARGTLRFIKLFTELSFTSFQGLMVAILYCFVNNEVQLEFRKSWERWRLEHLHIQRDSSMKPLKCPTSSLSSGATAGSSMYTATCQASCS

Regarding `CC[C@H](C)[C@H](NC(=O)[C@H](CC(C)C)NC(=O)[C@H](Cc1c[nH]cn1)NC(=O)[C@H](CCCNC(=N)N)NC(=O)[C@@H](NC(=O)[C@H](Cc1ccccc1)NC(=O)[C@H](C)NC(=O)C(C)(C)NC(=O)[C@H](CCC(N)=O)NC(=O)[C@H](C)NC(=O)[C@H](CCC(N)=O)NC(=O)[C@H](CCCCN)NC(=O)[C@H](CCC(=O)O)NC(=O)[C@H](CC(C)C)NC(=O)C(C)(C)NC(=O)[C@@H](NC(=O)[C@H](CO)NC(=O)[C@H](Cc1ccc(O)cc1)NC(=O)[C@H](CC(=O)O)NC(=O)[C@H](CO)NC(=O)[C@@H](NC(=O)[C@H](Cc1ccccc1)NC(=O)[C@@H](NC(=O)CNC(=O)[C@H](CCC(=O)O)NC(=O)C(C)(C)NC(=O)[C@@H](N)Cc1ccc(O)cc1)[C@@H](C)O)[C@@H](C)O)[C@@H](C)CC)C(C)C)C(=O)N[C@@H](CC(N)=O)C(=O)N[C@@H](CCCCNC(=O)CC[C@H](NC(=O)CC[C@H](NC(=O)CC[C@H](NC(=O)CC[C@H](NC(=O)CC[C@H](NC(=O)CC[C@H](NC(=O)CCCCCCCCCCCCCCCCCCC(=O)O)C(=O)O)C(=O)O)C(=O)O)C(=O)O)C(=O)O)C(=O)O)C(=O)NC(C)(C)C(=O)N[C@H](C(=O)N[C@@H](CCCNC(=N)N)C(=O)N[C@@H](CCC(N)=O)C(=O)N[C@@H](CCCNC(=N)N)C(=O)N[C@@H](Cc1ccc(O)cc1)C(N)=O)[C@@H](C)O` [Compound 3, Y-Aib-E-G-T-F-T-S-D-Y-S-I-Aib-L-E-K-Q-A-Q-Aib-A-F-V-R-H-L-I-N-K(1,3)-Aib-T-R-Q-R-Y-NH2.C20DA-gGlu-gGlu-gGlu-gGlu-gGlu-gGlu(1,2)], the EC50 at hGLP1R (setting [3]) was determined as 3 nM; at hGLP1R (setting [4]) it was 13.9 nM; at hGIPR (setting [5]), 0.7 nM. This molecule also returned an MRT in data set [1] of 17.2 h. In data set [2], the solubility at 2 h is 6900 µg/mL. Also, the “Acute Food Intake 24 hours 100 nmol/kg [% CTL]” value with Normal NMRI Mice is listed as 74 % CTL.

Take `CC[C@H](C)[C@H](NC(=O)[C@H](CC(C)C)NC(=O)[C@H](Cc1c[nH]cn1)NC(=O)[C@H](CCCNC(=N)N)NC(=O)[C@@H](NC(=O)[C@H](Cc1ccccc1)NC(=O)[C@H](C)NC(=O)C(C)(C)NC(=O)[C@H](CCC(N)=O)NC(=O)[C@H](C)NC(=O)[C@H](CCC(N)=O)NC(=O)[C@H](CCCCN)NC(=O)[C@H](CCC(=O)O)NC(=O)[C@H](CC(C)C)NC(=O)C(C)(C)NC(=O)[C@@H](NC(=O)[C@H](CO)NC(=O)[C@H](CC(C)C)NC(=O)[C@H](CC(=O)O)NC(=O)[C@H](CO)NC(=O)[C@@H](NC(=O)[C@H](Cc1ccccc1)NC(=O)[C@@H](NC(=O)CNC(=O)[C@H](CCC(=O)O)NC(=O)C(C)(C)NC(=O)[C@@H](N)Cc1ccc(O)cc1)[C@@H](C)O)[C@@H](C)O)[C@@H](C)CC)C(C)C)C(=O)N[C@@H](CC(N)=O)C(=O)N[C@@H](CCCCNC(=O)[C@@H](N)CCCCNC(=O)CC[C@H](NC(=O)CC[C@H](NC(=O)CC[C@H](NC(=O)CC[C@H](NC(=O)CC[C@H](NC(=O)CC[C@H](NC(=O)CCCCCCCCCCCCCCCCCCC(=O)O)C(=O)O)C(=O)O)C(=O)O)C(=O)O)C(=O)O)C(=O)O)C(=O)NC(C)(C)C(=O)N[C@H](C(=O)N[C@@H](CCCNC(=N)N)C(=O)N[C@@H](CCC(N)=O)C(=O)N[C@@H](CCCNC(=N)N)C(=O)N[C@@H](Cc1ccc(O)cc1)C(N)=O)[C@@H](C)O` [Compound 20, Y-Aib-E-G-T-F-T-S-D-L-S-I-Aib-L-E-K-Q-A-Q-Aib-A-F-V-R-H-L-I-N-K(1,3)-Aib-T-R-Q-R-Y-NH2.C20DA-gGlu-gGlu-gGlu-gGlu-gGlu-gGlu-eLys(1,2)]: the EC50 stood at 0.4 nM on hGIPR (hGIPR 0.5% hP (nM), 0.5% human plasma) and 6.9 nM on hGIPR (hGIPR 100% hP (nM), 100% human plasma). The solubility at 2 h in data set [2] was determined as 8500 µg/mL. Moreover, the “Acute Food Intake 24 hours 100 nmol/kg [% CTL]” value in the data set on Normal NMRI Mice turned out to be 79 % CTL.

Consider `CC[C@H](C)[C@H](NC(=O)[C@H](CC(C)C)NC(=O)[C@H](Cc1c[nH]cn1)NC(=O)[C@H](CCCNC(=N)N)NC(=O)[C@@H](NC(=O)[C@H](Cc1ccccc1)NC(=O)[C@H](C)NC(=O)C(C)(C)NC(=O)[C@H](CCC(N)=O)NC(=O)[C@H](C)NC(=O)[C@H](CCC(N)=O)NC(=O)[C@H](CCCCN)NC(=O)[C@H](CCC(=O)O)NC(=O)[C@H](CC(C)C)NC(=O)[C@](C)(CC(C)C)NC(=O)[C@@H](NC(=O)[C@H](CO)NC(=O)[C@H](Cc1ccc(O)cc1)NC(=O)[C@H](CC(=O)O)NC(=O)[C@H](CO)NC(=O)[C@@H](NC(=O)[C@H](Cc1ccccc1)NC(=O)[C@@H](NC(=O)CNC(=O)[C@H](CCC(=O)O)NC(=O)C(C)(C)NC(=O)[C@@H](N)Cc1ccc(O)cc1)[C@@H](C)O)[C@@H](C)O)[C@@H](C)CC)C(C)C)C(=O)N[C@@H](CC(N)=O)C(=O)N[C@@H](CCCCNC(=O)[C@@H](N)CCCCNC(=O)CC[C@H](NC(=O)CC[C@H](NC(=O)CC[C@H](NC(=O)CC[C@H](NC(=O)CC[C@H](NC(=O)CC[C@H](NC(=O)CC[C@H](NC(=O)CCCCCCCCCCCCCCCCCCC(=O)O)C(=O)O)C(=O)O)C(=O)O)C(=O)O)C(=O)O)C(=O)O)C(=O)O)C(=O)NC(C)(C)C(=O)N[C@H](C(=O)N[C@@H](CCCNC(=N)N)C(=O)N[C@@H](CCC(N)=O)C(=O)N[C@@H](CCCNC(=N)N)C(=O)N[C@@H](Cc1ccc(O)cc1)C(N)=O)[C@@H](C)O` [Compound 78, Y-Aib-E-G-T-F-T-S-D-Y-S-I-aMeL-L-E-K-Q-A-Q-Aib-A-F-V-R-H-L-I-N-K(1,3)-Aib-T-R-Q-R-Y-NH2.C20DA-gGlu-gGlu-gGlu-gGlu-gGlu-gGlu-gGlu-eLys(1,2)], for which the EC50 on hGLP1R (setting [3]) worked out at 0.2 nM; at hGIPR (setting [5]), 0.1 nM. Moreover, in data set [2], the solubility at 2 h is 10300 µg/mL. The “Acute Food Intake 24 hours 100 nmol/kg [% CTL]” value in the data set with Normal NMRI Mice came to 65 % CTL.

For `CC[C@H](C)[C@H](NC(=O)[C@H](Cc1ccccc1)NC(=O)[C@H](C)NC(=O)C(C)(C)NC(=O)[C@H](CCC(N)=O)NC(=O)[C@H](C)NC(=O)[C@H](CCC(N)=O)NC(=O)[C@H](CCCCN)NC(=O)[C@H](CCC(=O)O)NC(=O)[C@H](CC(C)C)NC(=O)C(C)(C)NC(=O)[C@@H](NC(=O)[C@H](CO)NC(=O)[C@H](Cc1ccc(O)cc1)NC(=O)[C@H](CC(=O)O)NC(=O)[C@H](CO)NC(=O)[C@@H](NC(=O)[C@H](Cc1ccccc1)NC(=O)[C@@H](NC(=O)CNC(=O)[C@H](CCC(=O)O)NC(=O)C(C)(C)NC(=O)[C@@H](N)Cc1ccc(O)cc1)[C@@H](C)O)[C@@H](C)O)[C@@H](C)CC)C(=O)N[C@@H](CCCNC(=N)N)C(=O)N[C@@H](Cc1c[nH]cn1)C(=O)N[C@@H](CC(C)C)C(=O)N[C@H](C(=O)N[C@@H](CC(N)=O)C(=O)N[C@@H](CCCCNC(=O)[C@@H](N)CCCCNC(=O)CC[C@H](NC(=O)CC[C@H](NC(=O)CC[C@H](NC(=O)CC[C@H](NC(=O)CC[C@H](NC(=O)CC[C@H](NC(=O)CCCCCCCCCCCCCCCCC(=O)O)C(=O)O)C(=O)O)C(=O)O)C(=O)O)C(=O)O)C(=O)O)C(=O)NC(C)(C)C(=O)N[C@H](C(=O)N[C@@H](CCCNC(=N)N)C(=O)N[C@@H](CCC(N)=O)C(=O)N[C@@H](CCCNC(=N)N)C(=O)N[C@@H](Cc1ccc(O)cc1)C(N)=O)[C@@H](C)O)[C@@H](C)CC` [Compound 88, Y-Aib-E-G-T-F-T-S-D-Y-S-I-Aib-L-E-K-Q-A-Q-Aib-A-F-I-R-H-L-I-N-K(1,3)-Aib-T-R-Q-R-Y-NH2.C18DA-gGlu-gGlu-gGlu-gGlu-gGlu-gGlu-eLys(1,2)], the EC50 is 0.2 nM at hGLP1R (setting [3]); 1.8 nM at hGLP1R (setting [4]); 0.1 nM at hGIPR (setting [5]); 1.7 nM on hGIPR (100% human plasma, read-out: hGIPR 100% hP). Further, the solubility at 2 h in data set [2] was found to be 10400 µg/mL. The “Acute Food Intake 24 hours 100 nmol/kg [% CTL]” value with Normal NMRI Mice worked out at 47 % CTL.

The record behind these values is patent US20250382344A1, “Soluble GLP1/GIP/NPY2 Receptor Triple Agonists” (Boehringer Ingelheim International GmH, priority 2024, published 2025).
